Assay results as given in US11753407B2, “Compounds for treating spinal muscular atrophy” (PTC Therapeutics, Inc., priority 2012, dated 2023).

Key:
[1] = system: SMN2 minigene mRNA (SMN2-A minigene) in HEK293H cells; experiment: SMN2 minigene mRNA splicing RT-qPCR assay in cultured cells; type: cell-based, human; conditions: Homo sapiens, HEK293-H; concentration increasing full length SMN2 mRNA 1.5-fold relative to vehicle-treated cells; HEK293H cells with SMN2-A minigene, 24 hours, 7-point concentration data; read-out: EC1.5x for production of full length SMN2 mRNA
How it was run: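 Cells are seeded, left to attach 4-6 h, then dosed with test compound across seven concentrations and incubated 24 h. Lysates undergo RT-qPCR with primers/probe specific to the exon 7-containing minigene transcript, co-amplified with GAPDH. Fold change over vehicle is calculated, and EC1.5× marks the 1.5-fold point.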

[2] = system: Smn protein in SMA patient fibroblast cells (GM03813); experiment: Smn protein assay in cultured cells (SMN HTRF); type: cell-based, human; conditions: SMA patient fibroblast cells, 48 hours; for maximum fold (Fold) increase of Smn protein: 7-point concentration data, fold relative to vehicle control; for EC1.5x for Smn protein expression: 7-point concentration curve, SMN HTRF, concentration producing 1.5 times Smn protein vs DMSO vehicle control
How it was run: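 Patient-derived SMA fibroblasts are plated, given compound for 48 h, then lysed in RIPA buffer with protease inhibitors. Lysate Smn is detected by an anti-SMN d2/kryptate HTRF pair incubated overnight. The normalized ΔF is divided by the vehicle ΔF to give fold change, from which EC1.5× and maximum fold are taken.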

melting point | SMILES | EC (1.5-fold increase) [1] | maximum fold (Fold) increase of Smn protein [2] | EC1.5x for Smn protein expression [2]
191 to 199 °C | C[C@H]1CN(c2ccc3nc(-c4cncc(F)c4)cc(=O)n3c2)CCN1 [Compound 93, 2-(5-fluoropyridin-3-yl)-7-[(3S)-3-methylpiperazin-1-yl]-4H-pyrido[1,2-a]pyrimidin-4-one] | 1 to 3 µM | ** (a fold increase between >1.2 and ≤1.35 is indicated by two stars (**)) | –
208 to 218 °C | O=c1cc(-c2cncc(Cl)c2)nc2ccc(N3CCNCC3)cn12 [Compound 94, 2-(5-chloropyridin-3-yl)-7-(piperazin-1-yl)-4H-pyrido[1,2-a]pyrimidin-4-one] | 1 to 3 µM | *** (a fold increase between >1.35 and ≤1.5 is indicated by three stars (***)) | –
227 to 232 °C | C[C@H]1CN(c2ccc3nc(-c4cncc(Cl)c4)cc(=O)n3c2)CCN1 [Compound 95, 2-(5-chloropyridin-3-yl)-7-[(3S)-3-methylpiperazin-1-yl]-4H-pyrido[1,2-a]pyrimidin-4-one] | 1 to 3 µM | **** (a fold increase between >1.5 and ≤1.65 is indicated by four stars (****)) | ** (an EC1.5× between >1 μM and ≤3 μM is indicated by two stars (**))
201 to 209 °C | COc1ncc(-c2cc(=O)n3cc(N4CCNCC4)ccc3n2)cc1Cl [Compound 96, 2-(5-chloro-6-methoxypyridin-3-yl)-7-(piperazin-1-yl)-4H-pyrido[1,2-a]pyrimidin-4-one] | 0.3 to 1 µM | **** (a fold increase between >1.5 and ≤1.65 is indicated by four stars (****)) | *** (an EC1.5× between >0.3 μM and ≤1 μM is indicated by three stars (***))
202 to 206 °C | O=c1cc(-c2ccc3cc[nH]c3c2)nc2ccc(N3CCNCC3)cn12 [Compound 97, 2-(1H-indol-6-yl)-7-(piperazin-1-yl)-4H-pyrido[1,2-a]pyrimidin-4-one] | 1 to 3 µM | ** (a fold increase between >1.2 and ≤1.35 is indicated by two stars (**)) | –
233 to 237 °C | O=c1cc(-c2ccc(O)c(OC(F)F)c2)nc2ccc(N3CCNCC3)cn12 [Compound 100, 2-[3-(difluoromethoxy)-4-hydroxyphenyl]-7-(piperazin-1-yl)-4H-pyrido[1,2-a]pyrimidin-4-one] | 0.3 to 1 µM | ***** (a fold increase >1.65 is indicated by five stars (*****)) | *** (an EC1.5× between >0.3 μM and ≤1 μM is indicated by three stars (***))
167 to 169 °C | COc1ccc(-c2cc(=O)n3cc(N4CCN[C@@H](C)C4)ccc3n2)cc1OC(F)F [Compound 101, 2-[3-(difluoromethoxy)-4-methoxyphenyl]-7-[(3S)-3-methylpiperazin-1-yl]-4H-pyrido[1,2-a]pyrimidin-4-one] | 0.3 to 1 µM | *** (a fold increase between >1.35 and ≤1.5 is indicated by three stars (***)) | –
192 to 197 °C | C[C@H]1CN(c2ccc3nc(-c4ccc(O)c(OC(F)F)c4)cc(=O)n3c2)CCN1 [Compound 102, 2-[3-(difluoromethoxy)-4-hydroxyphenyl]-7-[(3S)-3-methylpiperazin-1-yl]-4H-pyrido[1,2-a]pyrimidin-4-one] | 0.3 to 1 µM | ***** (a fold increase >1.65 is indicated by five stars (*****)) | *** (an EC1.5× between >0.3 μM and ≤1 μM is indicated by three stars (***))
200 to 202 °C | COc1ccc(-c2cc(=O)n3cc(N4CCNCC4)ccc3c2)cc1F [Compound 103, 2-(3-fluoro-4-methoxyphenyl)-7-(piperazin-1-yl)-4H-quinolizin-4-one] | 0.3 to 1 µM | *** (a fold increase between >1.35 and ≤1.5 is indicated by three stars (***)) | –
188 to 192 °C | COc1ccc(-c2cc(=O)n3cc(N4CCN[C@@H](C)C4)ccc3c2)cc1F [Compound 104, 2-(3-fluoro-4-methoxyphenyl)-7-[(3S)-3-methylpiperazin-1-yl]-4H-quinolizin-4-one] | 0.3 to 1 µM | *** (a fold increase between >1.35 and ≤1.5 is indicated by three stars (***)) | –
189 to 194 °C | C[C@H]1CN(c2ccc3nc(-c4cc(F)cc(F)c4)cc(=O)n3c2)CCN1 [Compound 105, 2-(3,5-difluorophenyl)-7-[(3S)-3-methylpiperazin-1-yl]-4H-pyrido[1,2-a]pyrimidin-4-one] | 0.1 to 0.3 µM | **** (a fold increase between >1.5 and ≤1.65 is indicated by four stars (****)) | *** (an EC1.5× between >0.3 μM and ≤1 μM is indicated by three stars (***))
201 to 203 °C | COc1ccc(-c2cc(=O)n3cc(N4CCNCC4)ccc3n2)cc1Cl [Compound 110, 2-(3-chloro-4-methoxyphenyl)-7-(piperazin-1-yl)-4H-pyrido[1,2-a]pyrimidin-4-one] | 0.1 to 0.3 µM | *** (a fold increase between >1.35 and ≤1.5 is indicated by three stars (***)) | –
187 to 189 °C | COc1ccc(-c2cc(=O)n3cc(N4CCN[C@@H](C)C4)ccc3n2)cc1Cl [Compound 111, 2-(3-chloro-4-methoxyphenyl)-7-[(3S)-3-methylpiperazin-1-yl]-4H-pyrido[1,2-a]pyrimidin-4-one] | 0.1 to 0.3 µM | *** (a fold increase between >1.35 and ≤1.5 is indicated by three stars (***)) | –
194 to 196 °C | CCOc1cc(-c2cc(=O)n3cc(N4CCNCC4)ccc3n2)ccc1OC [Compound 112, 2-(3-ethoxy-4-methoxyphenyl)-7-(piperazin-1-yl)-4H-pyrido[1,2-a]pyrimidin-4-one] | 0.3 to 1 µM | *** (a fold increase between >1.35 and ≤1.5 is indicated by three stars (***)) | –
159 to 162 °C | CCOc1cc(-c2cc(=O)n3cc(N4CCN[C@@H](C)C4)ccc3n2)ccc1OC [Compound 113, 2-(3-ethoxy-4-methoxyphenyl)-7-[(3S)-3-methylpiperazin-1-yl]-4H-pyrido[1,2-a]pyrimidin-4-one] | 1 to 3 µM | *** (a fold increase between >1.35 and ≤1.5 is indicated by three stars (***)) | –
181 to 186 °C | Cc1cn2cc(-c3cc(=O)n4cc(N5C[C@@H](C)N[C@@H](C)C5)ccc4n3)ccc2n1 [Compound 117, 7-[(3R,5S)-3,5-dimethylpiperazin-1-yl]-2-(2-methylimidazo[1,2-a]pyridin-6-yl)-4H-pyrido[1,2-a]pyrimidin-4-one] | < 0.1 µM | **** (a fold increase between >1.5 and ≤1.65 is indicated by four stars (****)) | **** (an EC1.5x≤0.3 μM is indicated by four stars (****))
189 to 192 °C | Cc1cn2cc(-c3cc(=O)n4cc(N5CCNCC5)ccc4n3)nc2c(C)n1 [Compound 118, 2-(6,8-dimethylimidazo[1,2-a]pyrazin-2-yl)-7-(piperazin-1-yl)-4H-pyrido[1,2-a]pyrimidin-4-one] | 0.1 to 0.3 µM | ***** (a fold increase >1.65 is indicated by five stars (*****)) | *** (an EC1.5× between >0.3 μM and ≤1 μM is indicated by three stars (***))
202 to 208 °C | Cc1cn2cc(-c3cc(=O)n4cc(N5CCN[C@@H](C)C5)ccc4n3)nc2c(C)n1 [Compound 119, 2-(6,8-dimethylimidazo[1,2-a]pyrazin-2-yl)-7-[(3S)-3-methylpiperazin-1-yl]-4H-pyrido[1,2-a]pyrimidin-4-one] | 0.1 to 0.3 µM | ***** (a fold increase >1.65 is indicated by five stars (*****)) | *** (an EC1.5× between >0.3 μM and ≤1 μM is indicated by three stars (***))
192 to 194 °C | Cc1cn2nc(-c3cc(=O)n4cc(N5CCN[C@@H](C)C5)ccc4n3)cc2c(C)n1 [Compound 121, 2-(4,6-dimethylpyrazolo[1,5-a]pyrazin-2-yl)-7-[(3S)-3-methylpiperazin-1-yl]-4H-pyrido[1,2-a]pyrimidin-4-one] | < 0.1 µM | ***** (a fold increase >1.65 is indicated by five stars (*****)) | **** (an EC1.5x≤0.3 μM is indicated by four stars (****))
197 to 200 °C | COc1ccc(-c2cc(=O)n3cc(-c4ccnc(C)c4)ccc3n2)cc1OC [Compound 122, 2-(3,4-dimethoxyphenyl)-7-(2-methylpyridin-4-yl)-4H-pyrido[1,2-a]pyrimidin-4-one] | 1 to 3 µM | *** (a fold increase between >1.35 and ≤1.5 is indicated by three stars (***)) | –
